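Five concentrations, 48 hours, 96-well plates. TGI: concentration producing complete growth inhibition.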
What was measured:
Experiment in all cases: inhibition of tumour cell growth, NCI panel, 48 h
786-0 renal = system: 786-0 renal
A498 renal = system: A498 renal
A549 NSCLC = system: A549 NSCLC
ACHN renal = system: ACHN renal
BT-549 breast = system: BT-549 breast
CAKI-1 renal = system: CAKI-1 renal
CCRF-CEM leukemia = system: CCRF-CEM leukemia
DU-145 prostate = system: DU-145 prostate
EKVX NSCLC = system: EKVX NSCLC
HCC-2998 colon = system: HCC-2998 colon
HCT-116 colon = system: HCT-116 colon
HCT-15 colon = system: HCT-15 colon
HOP-62 NSCLC = system: HOP-62 NSCLC
HOP-92 NSCLC = system: HOP-92 NSCLC
HS 578T breast = system: HS 578T breast
HT29 colon = system: HT29 colon
IGROV1 ovarian = system: IGROV1 ovarian
K-562 leukemia = system: K-562 leukemia
KM12 colon = system: KM12 colon
LOX IMVI melanoma = system: LOX IMVI melanoma
M14 melanoma = system: M14 melanoma
MALME-3M melanoma = system: MALME-3M melanoma
MDA-MB-231 breast = system: MDA-MB-231 breast
MDA-MB-435 = system: MDA-MB-435
MDA-N = system: MDA-N
MOLT-4 leukemia = system: MOLT-4 leukemia
NCI-H226 lung = system: NCI-H226 lung
NCI-H23 lung = system: NCI-H23 lung
NCI-H460 lung = system: NCI-H460 lung
NCI-H522 lung = system: NCI-H522 lung
NCI/ADR-RES ovarian = system: NCI/ADR-RES ovarian
OVCAR-3 ovarian = system: OVCAR-3 ovarian
OVCAR-4 ovarian = system: OVCAR-4 ovarian
OVCAR-5 ovarian = system: OVCAR-5 ovarian
OVCAR-8 ovarian = system: OVCAR-8 ovarian
PC-3 prostate = system: PC-3 prostate
RXF 393 renal = system: RXF 393 renal
SF-268 CNS = system: SF-268 CNS
SF-295 CNS = system: SF-295 CNS
SK-MEL-2 melanoma = system: SK-MEL-2 melanoma
SK-MEL-28 melanoma = system: SK-MEL-28 melanoma
SK-MEL-5 melanoma = system: SK-MEL-5 melanoma
SN12C renal = system: SN12C renal
SNB-19 CNS = system: SNB-19 CNS
SNB-75 CNS = system: SNB-75 CNS
SR leukemia = system: SR leukemia
SW-620 colon = system: SW-620 colon
T-47D breast = system: T-47D breast
TK-10 renal = system: TK-10 renal
U251 CNS = system: U251 CNS
UACC-257 melanoma = system: UACC-257 melanoma
UACC-62 melanoma = system: UACC-62 melanoma
UO-31 renal = system: UO-31 renal
COLO 205 colon = system: COLO 205 colon
HL-60(TB) leukemia = system: HL-60(TB) leukemia
MCF7 breast = system: MCF7 breast
RPMI-8226 leukemia = system: RPMI-8226 leukemia

Measured: TGI

CN(C)CS/C(N)=N\C(O)C(Cl)(Cl)Cl (stereo not drawn)
not listed: COLO 205 colon | HL-60(TB) leukemia | MCF7 breast | RPMI-8226 leukemia
> 100 µM: all other assays above

CC(=O)NC(CCCCNC(=O)OC(C)(C)C)C(=O)O (stereo not drawn)
not listed: 786-0 renal | BT-549 breast | HOP-92 NSCLC | HS 578T breast | KM12 colon | NCI-H226 lung | NCI-H23 lung | RXF 393 renal | SK-MEL-2 melanoma | SN12C renal | SNB-75 CNS | SR leukemia
> 100 µM: all other assays above
